One assay deals with T1, IKZF1 (Homo sapiens, UniProt Q13422+Q96SW2).
T1 construct: expressed in transfected cells
Put plainly: HiBiT protein tagging assay, in vitro IKZF1 degradation (HEK293). In kind it is cell-based. To be noted: for Dmax: read-out: IKZF1 Dmax (maximum degradation at the highest concentration tested). The procedure, abridged: (§1)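 Flp-In T-REx HEK293 pools stably expressing C-terminal HiBiT-tagged IKZF1 or IKZF2 were induced overnight with 1 μg/ml doxycycline. Cells were then treated with serially diluted compound for 18-24 hr at 37 °C and read by Nano-Glo lytic luminescence. Data were normalized to 0.5% DMSO as POC; EC50 and Dmax (maximum degradation at highest concentration tested) reported.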
For orientation: The HiBiT peptide binds its large partner to form an active luciferase.

Another assay has as its target T2, IKZF2 (Homo sapiens, UniProt Q96SW2+Q9UKS7).
T2 construct: expressed in transfected cells
Put plainly: HiBiT protein tagging assay, in vitro IKZF2 degradation (HEK293). In kind it is cell-based. The procedure, abridged:
as §1

The mark [1] stands for this setting: HEK293, 18-24 hr incubation, normalized to DMSO control.
Setting [2] is: HEK293, 18-24 hr incubation, normalized to DMSO control, read-out: IKZF1 EC50.
The mark [3] stands for this setting: HEK293, HiBiT assay, HEK293, 18-24 hr incubation, normalized to DMSO control; read-out: IKZF2 Dmax (maximum degradation at the highest concentration tested).
[4] abbreviates: HiBiT assay, HEK293, 18-24 hr incubation, normalized to DMSO control; read-out: IKZF2 EC50.

Like-named read-outs stand apart in the source and are kept apart here.

T1 sequence (Q13422 whole entry): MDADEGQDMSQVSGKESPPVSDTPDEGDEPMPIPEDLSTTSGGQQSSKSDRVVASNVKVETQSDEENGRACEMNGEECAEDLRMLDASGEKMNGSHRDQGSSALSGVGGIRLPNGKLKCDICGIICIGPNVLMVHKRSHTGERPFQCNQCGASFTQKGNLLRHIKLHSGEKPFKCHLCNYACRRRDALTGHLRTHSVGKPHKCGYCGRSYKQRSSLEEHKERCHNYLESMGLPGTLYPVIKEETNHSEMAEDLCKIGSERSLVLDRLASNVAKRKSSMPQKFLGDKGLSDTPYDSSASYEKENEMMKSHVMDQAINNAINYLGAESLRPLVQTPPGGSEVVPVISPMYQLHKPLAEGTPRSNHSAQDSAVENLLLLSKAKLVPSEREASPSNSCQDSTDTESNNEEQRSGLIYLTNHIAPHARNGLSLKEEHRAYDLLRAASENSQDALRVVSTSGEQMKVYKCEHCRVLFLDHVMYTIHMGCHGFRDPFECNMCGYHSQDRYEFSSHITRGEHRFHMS
T1 sequence (Q96SW2 whole entry): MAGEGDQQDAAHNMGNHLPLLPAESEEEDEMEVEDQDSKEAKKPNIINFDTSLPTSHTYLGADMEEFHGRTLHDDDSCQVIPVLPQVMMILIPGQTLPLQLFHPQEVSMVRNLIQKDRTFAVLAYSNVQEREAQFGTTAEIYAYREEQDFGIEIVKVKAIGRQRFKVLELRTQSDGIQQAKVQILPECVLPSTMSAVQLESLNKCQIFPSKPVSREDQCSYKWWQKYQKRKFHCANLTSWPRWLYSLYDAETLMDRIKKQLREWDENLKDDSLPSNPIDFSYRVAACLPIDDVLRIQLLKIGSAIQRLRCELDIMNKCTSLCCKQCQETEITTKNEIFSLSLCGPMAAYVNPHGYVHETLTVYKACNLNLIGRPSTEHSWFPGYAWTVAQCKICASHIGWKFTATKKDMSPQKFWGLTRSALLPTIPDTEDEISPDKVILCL
T1 sequence (Q16531 whole entry partner): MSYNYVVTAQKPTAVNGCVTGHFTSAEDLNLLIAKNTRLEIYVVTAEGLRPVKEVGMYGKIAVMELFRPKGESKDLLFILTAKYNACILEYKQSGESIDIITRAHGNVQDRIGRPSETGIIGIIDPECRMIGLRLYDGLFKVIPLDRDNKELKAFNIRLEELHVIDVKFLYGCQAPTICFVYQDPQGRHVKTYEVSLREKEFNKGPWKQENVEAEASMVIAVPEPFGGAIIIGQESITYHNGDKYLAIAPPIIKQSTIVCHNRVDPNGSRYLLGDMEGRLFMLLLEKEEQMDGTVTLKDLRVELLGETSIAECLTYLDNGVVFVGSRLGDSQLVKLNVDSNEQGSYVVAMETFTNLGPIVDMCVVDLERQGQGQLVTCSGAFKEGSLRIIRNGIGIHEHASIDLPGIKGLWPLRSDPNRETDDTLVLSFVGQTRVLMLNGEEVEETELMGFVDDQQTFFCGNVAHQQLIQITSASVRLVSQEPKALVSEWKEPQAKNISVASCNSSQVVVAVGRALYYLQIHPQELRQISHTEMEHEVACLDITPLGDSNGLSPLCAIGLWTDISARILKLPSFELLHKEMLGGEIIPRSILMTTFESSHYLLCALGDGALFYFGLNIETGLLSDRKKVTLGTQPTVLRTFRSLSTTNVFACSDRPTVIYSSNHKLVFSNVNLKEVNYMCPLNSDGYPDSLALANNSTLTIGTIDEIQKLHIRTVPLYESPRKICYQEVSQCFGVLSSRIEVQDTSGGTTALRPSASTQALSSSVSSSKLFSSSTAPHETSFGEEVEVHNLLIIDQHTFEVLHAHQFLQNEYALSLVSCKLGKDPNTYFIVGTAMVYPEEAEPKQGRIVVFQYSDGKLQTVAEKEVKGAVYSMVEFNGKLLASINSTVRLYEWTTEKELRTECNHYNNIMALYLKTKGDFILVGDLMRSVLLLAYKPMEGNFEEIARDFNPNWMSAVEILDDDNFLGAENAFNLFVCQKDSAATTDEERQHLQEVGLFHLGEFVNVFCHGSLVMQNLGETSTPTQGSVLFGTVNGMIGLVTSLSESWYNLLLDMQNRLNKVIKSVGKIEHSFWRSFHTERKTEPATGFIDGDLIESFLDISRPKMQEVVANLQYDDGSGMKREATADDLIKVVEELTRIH
T2 sequence (Q9UKS7 1-500 isoform Q9UKS7-2): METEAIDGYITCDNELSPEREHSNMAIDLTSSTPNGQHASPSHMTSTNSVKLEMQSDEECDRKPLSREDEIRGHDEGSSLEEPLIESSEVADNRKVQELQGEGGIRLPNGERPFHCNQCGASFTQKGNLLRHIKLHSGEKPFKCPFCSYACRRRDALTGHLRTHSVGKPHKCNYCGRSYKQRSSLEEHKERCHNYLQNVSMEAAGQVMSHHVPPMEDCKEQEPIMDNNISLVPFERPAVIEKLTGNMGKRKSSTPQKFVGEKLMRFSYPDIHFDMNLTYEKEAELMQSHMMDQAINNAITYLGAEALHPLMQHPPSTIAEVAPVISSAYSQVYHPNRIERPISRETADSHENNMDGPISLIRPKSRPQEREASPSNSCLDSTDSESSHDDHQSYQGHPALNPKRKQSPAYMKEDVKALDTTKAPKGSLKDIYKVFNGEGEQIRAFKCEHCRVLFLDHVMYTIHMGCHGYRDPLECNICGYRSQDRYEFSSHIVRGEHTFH
T2 sequence (Q96SW2 whole entry): as the sequence (Q96SW2 whole entry) above
T2 sequence (Q16531 whole entry partner): as the sequence (Q16531 whole entry partner) above

With `CC1(C)CCC(NCc2ccc3c(c2)CN(C2CCC(=O)NC2=O)C3=O)CC1` (stereo not shown) [Example 140], the Dmax at IKZF1 (setting [1]) amounted to 60%; on IKZF2 (setting [3]) it was 86%. Also, the DC50 on IKZF1 (setting [2]) amounted to 55 nM; at IKZF2 (setting [4]) it was 61 nM.

`O=C1CCC(N2Cc3cc(CNC45CCC(CC4)C5)ccc3C2=O)C(=O)N1` (stereo not shown) [Example 141]: the values for the Dmax at IKZF1 (setting [1]) and on IKZF2 (setting [3]) were 32% and 93%, respectively. Besides, the DC50 at IKZF1 (setting [2]) was found to be 121 nM; at IKZF2 (setting [4]) it was 37 nM.

Take `O=C1CCC(N2Cc3cc(CNC45CCC(CO)(CC4)C5)ccc3C2=O)C(=O)N1` (stereo not shown) [Example 142]: the Dmax amounted to 26% on IKZF1 (setting [1]) and 99% at IKZF2 (setting [3]). For the same compound, the DC50 was 374 nM on IKZF1 (setting [2]) and 218 nM at IKZF2 (setting [4]).

For `O=C1CCC(N2Cc3cc(CNC45CCCC(O)(C4)C5)ccc3C2=O)C(=O)N1` (stereo not shown) [Example 143], the DC50 on IKZF1 (setting [2]) is above 1000 nM; at IKZF2 (setting [4]) it was 243 nM. The Dmax on IKZF2 (setting [3]) was determined as 66%.

With `COC(=O)C1(C)CCCC(NCc2ccc3c(c2)CN(C2CCC(=O)NC2=O)C3=O)C1` (stereo not shown) [Example 144], the Dmax on IKZF1 (setting [1]) was found to be 50%; at IKZF2 (setting [3]) it was 88%. Moreover, the DC50 at IKZF1 (setting [2]) is 137 nM; at IKZF2 (setting [4]), 97 nM.

Turning to `O=C1CCC(N2Cc3cc(CN[C@@H]4CCCC[C@H]4OCc4ccccc4Cl)ccc3C2=O)C(=O)N1` (stereo partly shown) [Example 145], the figures for the Dmax on IKZF1 (setting [1]) and on IKZF2 (setting [3]) were 31% and 92%, respectively. Further, the figures for the DC50 at IKZF1 (setting [2]) and on IKZF2 (setting [4]) were 246 nM and 78 nM, respectively.

With `O=C1CCC(N2Cc3cc(CN[C@@H]4CCC[C@H](COCc5ccccc5)C4)ccc3C2=O)C(=O)N1` (stereo partly shown) [Example 146], the Dmax on IKZF1 (setting [1]) is 93%; on IKZF2 (setting [3]), 94%. The values for the DC50 on IKZF1 (setting [2]) and at IKZF2 (setting [4]) were 5 nM and 9 nM, respectively.

Regarding `CC1CCC(C)(NCc2ccc3c(c2)CN(C2CCC(=O)NC2=O)C3=O)CC1` (stereo not shown) [Example 147], the Dmax came to 28% at IKZF1 (setting [1]) and 87% at IKZF2 (setting [3]). Moreover, the DC50 amounted to 155 nM on IKZF1 (setting [2]) and 87 nM at IKZF2 (setting [4]).

In the case of `CC[C@H]1CCCC[C@H]1NCc1ccc2c(c1)CN(C1CCC(=O)NC1=O)C2=O` (stereo partly shown) [Example 148], the Dmax at IKZF1 (setting [1]) came out at 38%; at IKZF2 (setting [3]) it was 43%. For the same compound, the DC50 at IKZF1 (setting [2]) was determined as 119 nM; on IKZF2 (setting [4]) it was 177 nM.

As for `CC[C@@H]1CCCC[C@H]1NCc1ccc2c(c1)CN(C1CCC(=O)NC1=O)C2=O` (stereo partly shown) [Example 149], the DC50 on IKZF1 (setting [2]) was above 1000 nM; at IKZF2 (setting [4]), 115 nM. The Dmax at IKZF2 (setting [3]) came out at 35%.

With `O=C1CCC(N2Cc3cc(CNC4(C5CC5)CCCCC4)ccc3C2=O)C(=O)N1` (stereo not shown) [Example 150, 3-(5-(((1-cyclopropylcyclohexyl)amino)methyl)-1-oxoisoindolin-2-yl)piperidine-2,6-dione], the DC50 on IKZF1 (setting [2]) was above 10000 nM; on IKZF2 (setting [4]) it was 445 nM. The Dmax at IKZF2 (setting [3]) is 47%.

Take `CC1(NCc2ccc3c(c2)CN(C2CCC(=O)NC2=O)C3=O)CCCC1` (stereo not shown) [Example 151, 3-(5-(((1-methylcyclopentyl)amino)methyl)-1-oxoisoindolin-2-yl)piperidine-2,6-dione]: the values for the Dmax on IKZF1 (setting [1]) and on IKZF2 (setting [3]) were 26% and 81%, respectively. In addition, the DC50 was determined as 172 nM on IKZF1 (setting [2]) and 151 nM at IKZF2 (setting [4]).

As to `O=C1CCC(N2Cc3cc(CNC4(CCc5ccccc5)CCCCC4)ccc3C2=O)C(=O)N1` (stereo not shown) [Example 152, 3-(1-oxo-5-(((1-phenethylcyclohexyl)amino)methyl)isoindolin-2-yl)piperidine-2,6-dione], the DC50 was above 1000 nM at IKZF1 (setting [2]) and 172 nM at IKZF2 (setting [4]). Further, the Dmax at IKZF2 (setting [3]) turned out to be 65%.

Consider `O=C1CCC(N2Cc3cc(CNC4(c5ccc(F)cc5)CCCCC4)ccc3C2=O)C(=O)N1` (stereo not shown) [Example 153, 3-(5-(((1-(4-fluorophenyl)cyclohexyl)amino)methyl)-1-oxoisoindolin-2-yl)piperidine-2,6-dione], for which the DC50 at IKZF1 (read-out: IKZF1 EC50, HEK293, 18-24 hr incubation, normalized to DMSO control) was above 1000 nM; on IKZF2 (read-out: IKZF2 EC50; HiBiT assay, HEK293, 18-24 hr incubation, normalized to DMSO control), 122 nM. Also, the Dmax on IKZF2 (setting [3]) came out at 36%.

Turning to `COCC1(NCc2ccc3c(c2)CN(C2CCC(=O)NC2=O)C3=O)CCCCC1` (stereo not shown) [Example 154, 3-(5-(((1-(methoxymethyl)cyclohexyl)amino)methyl)-1-oxoisoindolin-2-yl)piperidine-2,6-dione], the DC50 is above 1000 nM at IKZF1 (setting [2]) and 293 nM on IKZF2 (setting [4]). Further, the Dmax on IKZF2 (setting [3]) is 47%.

For the compound `C[C@]1(NCc2ccc3c(c2)CN(C2CCC(=O)NC2=O)C3=O)CCCN(Cc2ccccc2)C1` (stereo partly drawn) [Example 155, 3-(5-((((S)-1-benzyl-3-methylpiperidin-3-yl)amino)methyl)-1-oxoisoindolin-2-yl)piperidine-2,6-dione], the Dmax is 61% on IKZF1 (setting [1]) and 87% at IKZF2 (setting [3]). Besides, the DC50 at IKZF1 (setting [2]) worked out at 122 nM; on IKZF2 (setting [4]) it was 106 nM.

As for `C[C@@]1(NCc2ccc3c(c2)CN(C2CCC(=O)NC2=O)C3=O)CCCN(Cc2ccccc2)C1` (stereo partly drawn) [Example 156, 3-(5-((((R)-1-benzyl-3-methylpiperidin-3-yl)amino)methyl)-1-oxoisoindolin-2-yl)piperidine-2,6-dione], the Dmax on IKZF1 (setting [1]) came to 92%; at IKZF2 (setting [3]) it was 96%. The values for the DC50 at IKZF1 (setting [2]) and at IKZF2 (setting [4]) were 58 nM and 35 nM, respectively.

In the case of `O=C1CCC(N2Cc3cc(CN[C@H]4CCC[C@@H]4NCc4ccccc4)ccc3C2=O)C(=O)N1` (stereo partly drawn) [Example 157, 3-(5-((((1S,2S)-2-(benzylamino)cyclopentyl)amino)methyl)-1-oxoisoindolin-2-yl)piperidine-2,6-dione], the Dmax at IKZF1 (setting [1]) is 66%; on IKZF2 (setting [3]), 43%. Also, the figures for the DC50 on IKZF1 (setting [2]) and at IKZF2 (setting [4]) were 131 nM and 443 nM, respectively.

Turning to `COC[C@@H]1CCCC[C@@H]1NCc1ccc2c(c1)CN(C1CCC(=O)NC1=O)C2=O` (stereo partly drawn) [Example 158, 3-(5-((((1S,2R)-2-(methoxymethyl)cyclohexyl)amino)methyl)-1-oxoisoindolin-2-yl)piperidine-2,6-dione], the Dmax on IKZF1 (setting [1]) was 85%; on IKZF2 (setting [3]) it was 93%. Further, the DC50 at IKZF1 (setting [2]) stood at 90 nM; at IKZF2 (setting [4]) it was 46 nM.

The record behind these values is patent US20240124412A1, “IKAROS ZINC FINGER FAMILY DEGRADERS AND USES THEREOF” (Gilead Sciences, Inc., priority 2021, published 2024).
